Results: the CheMixHub viscosity set

Assay: xn = mol fraction of the nth substance listed

CCCCOC(C)=O + CCO
viscosity [mPa·s], 101 kPa
Conditions	x1 = 0.0995	x1 = 0.1987	x1 = 0.2996	x1 = 0.4023	x1 = 0.4982	x1 = 0.5987	x1 = 0.693	x1 = 0.7968	x1 = 0.9004
298.15 K	0.937	0.835	0.765	0.71	0.668	0.647	0.639	0.641	0.648
303.15 K	0.871	–	0.712	0.663	–	0.612	0.61	0.616	0.621
308.15 K	0.797	0.719	0.657	0.621	0.591	0.582	0.582	0.582	0.587
313.15 K	0.734	0.671	0.621	0.591	0.563	0.558	0.555	0.562	–

Clc1ccccc1Cl + CCNc1ccccc1
viscosity [mPa·s], 101 kPa
Conditions	303.15 K	308.15 K
x2 = 0.0789	1.286	1.19
x2 = 0.1156	1.309	1.21
x2 = 0.1659	1.338	1.234
x2 = 0.2569	1.391	1.277
x2 = 0.3287	1.43	1.309
x2 = 0.3968	1.467	1.339
x2 = 0.4925	1.516	1.379
x2 = 0.5421	1.541	1.399
x2 = 0.6325	1.584	1.434
x2 = 0.6897	1.611	1.454
x2 = 0.7659	1.646	1.48
x2 = 0.8425	1.678	1.508
x2 = 0.9121	1.709	1.531

CCCN + COCCOCCOCCOC
298.15 K, 101 kPa
Conditions	viscosity [mPa·s]
x2 = 0.0076	0.366
x2 = 0.0166	0.375
x2 = 0.0296	0.393
x2 = 0.0659	0.44
x2 = 0.0954	0.48
x2 = 0.1298	0.526
x2 = 0.1596	0.567
x2 = 0.1909	0.611
x2 = 0.2265	0.659
x2 = 0.2351	0.673
x2 = 0.2622	0.711
x2 = 0.2681	0.721
x2 = 0.3073	0.782
x2 = 0.3623	0.864
x2 = 0.4044	0.935
x2 = 0.4583	1.022
x2 = 0.5139	1.115
x2 = 0.5761	1.225
x2 = 0.6483	1.365
x2 = 0.6867	1.435
x2 = 0.745	1.549
x2 = 0.8308	1.72
x2 = 0.8787	1.805
x2 = 0.9203	1.862
x2 = 0.9618	1.917

CCCOC(=O)c1ccccc1 + CCCCCCCCCCCCCC
101 kPa
Conditions	viscosity [mPa·s]
298.15 K, x2 = 0.0348	2.302
298.15 K, x2 = 0.0666	2.257
298.15 K, x2 = 0.0955	2.215
298.15 K, x2 = 0.1309	2.171
298.15 K, x2 = 0.1608	2.137
298.15 K, x2 = 0.1965	2.099
298.15 K, x2 = 0.2367	2.06
298.15 K, x2 = 0.2722	2.029
298.15 K, x2 = 0.307	2.003
298.15 K, x2 = 0.3527	1.974
298.15 K, x2 = 0.401	1.948
298.15 K, x2 = 0.4477	1.928
298.15 K, x2 = 0.4973	1.916
298.15 K, x2 = 0.549	1.906
298.15 K, x2 = 0.5955	1.905
298.15 K, x2 = 0.6516	1.908
298.15 K, x2 = 0.7159	1.921
298.15 K, x2 = 0.7647	1.934
298.15 K, x2 = 0.8531	1.97
308.15 K, x2 = 0.0488	1.84
308.15 K, x2 = 0.0735	1.808
308.15 K, x2 = 0.1091	1.77
308.15 K, x2 = 0.148	1.734
308.15 K, x2 = 0.1734	1.714
308.15 K, x2 = 0.215	1.682
308.15 K, x2 = 0.2514	1.659
308.15 K, x2 = 0.2896	1.639
308.15 K, x2 = 0.3376	1.62
308.15 K, x2 = 0.3703	1.608
308.15 K, x2 = 0.4154	1.596
308.15 K, x2 = 0.4616	1.587
308.15 K, x2 = 0.5232	1.58
308.15 K, x2 = 0.572	1.58
308.15 K, x2 = 0.6124	1.582
308.15 K, x2 = 0.6769	1.588
308.15 K, x2 = 0.7367	1.601
308.15 K, x2 = 0.8128	1.623
308.15 K, x2 = 0.8907	1.652
318.15 K, x2 = 0.0558	1.521
318.15 K, x2 = 0.0578	1.517
318.15 K, x2 = 0.0908	1.491
318.15 K, x2 = 0.1258	1.464
318.15 K, x2 = 0.159	1.442
318.15 K, x2 = 0.1985	1.418
318.15 K, x2 = 0.2344	1.399
318.15 K, x2 = 0.2777	1.379
318.15 K, x2 = 0.3162	1.364
318.15 K, x2 = 0.3637	1.348
318.15 K, x2 = 0.4065	1.337
318.15 K, x2 = 0.4576	1.328
318.15 K, x2 = 0.5191	1.321
318.15 K, x2 = 0.5622	1.319
318.15 K, x2 = 0.6149	1.32
318.15 K, x2 = 0.68	1.325
318.15 K, x2 = 0.7358	1.332
318.15 K, x2 = 0.8096	1.347
318.15 K, x2 = 0.9298	1.382

CCCN + CCCCCCCCO
viscosity [mPa·s], 101.33 kPa
Conditions	x1 = 0.1005	x1 = 0.1898	x1 = 0.3064	x1 = 0.385	x1 = 0.4834	x1 = 0.5835	x1 = 0.6813	x1 = 0.7916	x1 = 0.8908
303.15 K	4.988	4.15	3.23	2.689	2.107	1.601	1.182	0.8056	0.5464
313.15 K	3.651	3.052	2.37	1.976	1.563	1.203	0.9234	0.6649	0.4703

CC(C)c1ccccc1 + CCCO
viscosity [mPa·s], 101 kPa
Conditions	298.15 K	303.15 K	308.15 K	313.15 K	318.15 K	323.15 K
x1 = 0.013	1.976	–	1.523	–	–	–
x1 = 0.0796	1.683	–	1.334	–	–	–
x1 = 0.1684	1.406	–	1.14	–	–	–
x1 = 0.2504	1.236	–	1.011	–	–	–
x1 = 0.3462	1.092	–	0.896	–	–	–
x1 = 0.4697	0.956	–	0.791	–	–	–
x1 = 0.5994	0.854	–	0.712	–	–	–
x1 = 0.7565	0.756	–	0.657	–	–	–
x2 = 0.0996	–	0.6838	0.6412	0.602	0.5678	0.5436
x2 = 0.1997	–	0.6995	0.6529	0.612	0.5746	0.54
x2 = 0.2988	–	0.7297	0.6794	0.6333	0.592	0.5542
x2 = 0.4008	–	0.7751	0.7176	0.6661	0.6202	0.5777
x2 = 0.5012	–	0.8411	0.7731	0.7142	0.6612	0.6129
x2 = 0.6002	–	0.9284	0.847	0.7762	0.7145	0.6596
x2 = 0.7002	–	1.046	0.9475	0.8652	0.7897	0.7201
x2 = 0.8	–	1.205	1.086	0.982	0.8912	0.81
x2 = 0.8991	–	1.426	1.275	1.146	1.033	0.9322

CCCN(CCC)C(C)=O + O
298.16 K, 101 kPa
Conditions	viscosity [mPa·s]
x2 = 0.0688	2.38
x2 = 0.1822	2.71
x2 = 0.3049	3.12
x2 = 0.4342	3.66
x2 = 0.5515	4.26
x2 = 0.6896	4.87
x2 = 0.74	4.95
x2 = 0.762	4.95
x2 = 0.7891	4.88
x2 = 0.8742	3.94
x2 = 0.9163	2.96
